# Legend:
# [1] = test system: Mus musculus; test: Increase in life span of mice with L1210 leukemia cells at a dose of 20 mg/kg; type: functional
# [2] = biological target: T1, Dihydrofolate reductase (Mus musculus, UniProt P00375); test: biochemical
# T1 sequence (P00375 whole entry): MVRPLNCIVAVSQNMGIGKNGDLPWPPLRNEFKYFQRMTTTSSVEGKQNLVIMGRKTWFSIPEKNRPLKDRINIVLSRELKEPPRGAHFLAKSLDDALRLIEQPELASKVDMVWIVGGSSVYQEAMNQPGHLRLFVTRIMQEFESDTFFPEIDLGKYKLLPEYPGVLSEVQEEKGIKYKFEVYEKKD
# Description: Compound was tested for its inhibitory concentration to inhibit the enzyme Dihydro Folate Reductase (DHFR) from murine L1210 leukemia cells.
# [3] = test system: L1210; test: Compound was tested for its inhibitory concentration to inhibit the growth of wild type L1210 cells.; type: functional, cell-based, Mus musculus
# [4] = test system: Mus musculus; test: Median Survival days of mice infected with L1210 leukemia cells at dose 20 mg/kg relative to that of 9 days for control; type: functional
# [5] = organism: Homo sapiens; test: Compound was tested for its inhibitory concentration against human leukemic lymphoblasts ( CEM Cells ).; type: functional; details: CCRF-CEM
# [6] = organism: Homo sapiens; test: Compound was tested for its inhibitory concentration against human leukemic lymphoblasts (CEM Cells) and a resistant subline (CEM / MTX).; type: functional; details: CCRF-CEM
# [7] = biological target: T2, Dihydrofolate reductase (Mus musculus) (UniProt P00375); details: L1210
# T2 sequence (whole entry): T1 sequence (P00375 whole entry)
# Description: Compound was tested for inhibition of the enzyme DiHydroFolate Reductase (DHFR) from murine L1210 leukemia cells
# [8] = test system: Mus musculus; test: Increase in life span of mice with L1210 leukemia cells at a dose of 40 mg/kg; type: functional
# [9] = test system: Mus musculus; test: Increase in life span of mice with L1210 leukemia cells at a dose of 80 mg/kg; Toxic; type: functional, organism-based; parameters: dose 80 mg/kg
# [10] = organism: Mus musculus; test: Compound was tested against weight change in mice with L1210 leukemia cells on 10 th Day at Dose 40 mg / kg; details: at 40 mg/kg
# [11] = test system: L1210; test: Compound was tested for its inhibitory concentration to inhibit the growth of wild type L1210 cells and a subline ( L1210 / R81 ).; type: functional, cell-based; details: Mus musculus
# [12] = test system: Mus musculus; test: Median Survival days of mice infected with L1210 leukemia cells at dose 80 mg/kg relative to that of 9 days for control; Toxic; type: functional, organism-based; parameters: dose 80 mg/kg
# [13] = organism: Mus musculus; test: Compound was tested against weight change in mice with L1210 leukemia cells on 10 th Day at Dose 20 mg / kg; details: at 20 mg/kg
# [14] = organism: Mus musculus; test: Compound was tested against weight change in mice with L1210 leukemia cells on 10 th Day at Dose 80 mg / kg; details: at 80 mg/kg
# [15] = test system: Mus musculus; test: Median Survival days of mice infected with L1210 leukemia cells at dose 40 mg/kg relative to that of 9 days for control; type: functional
# [16] = organism: Mus musculus; test: Compound was tested against weight change in mice with L1210 leukemia cells on 7 th Day at Dose 1 mg / kg; type: functional; details: at 1 mg/kg
# [17] = test system: Mus musculus; test: Median Survival days of mice infected with L1210 leukemia cells at dose 1 mg/kg relative to that of 9 days for control; type: functional
# [18] = test system: Mus musculus; test: Increase in life span of mice with L1210 leukemia cells at a dose of 0.5 mg/kg; type: functional
# [19] = test system: Mus musculus; test: Increase in life span of mice with L1210 leukemia cells at a dose of 1 mg/kg; type: functional
# [20] = organism: Homo sapiens; test: Compound was tested for its inhibitory concentration against human leukemic lymphoblasts (CEM Cells); type: functional; details: CCRF-CEM
# [21] = test system: Mus musculus; test: Median Survival days of mice infected with L1210 leukemia cells at dose 0.5 mg/kg relative to that of 9 days for control; type: functional
# [22] = organism: Mus musculus; test: Compound was tested against weight change in mice with L1210 leukemia cells on 7 th Day at Dose 0.5 mg / kg; type: functional; details: at 0.5 mg/kg
smiles,measurement,setting,value
Nc1nc(N)c2nc(CNc3ccc(C(=O)NC(CCC(=O)NCc4ccccc4)C(=O)O)cc3)cnc2n1 (configuration not stated),ILS at 20 mg/kg,[1],33%
same,IC50,[2],87 nM
same,IC50,"[3]; Mus musculus, L1210",5 nM
same,IC50,[3]; l1210,7.1 nM
same,Survival,[4],12 days
same,IC50,[5],65 nM
same,IC50,[6],6 µM
same,IC50/[E],[7],2.2
same,ILS at 40 mg/kg,[8],56%
same,ILS,[9],Toxic
same,Weight change,[10],3%
same,IC50,[11],17 µM
same,Survival,[12],Toxic
same,Weight change,[13],13%
same,Weight change,[14],-26%
same,Survival,[15],14 days
Nc1nc(N)c2nc(CNc3ccc(C(=O)N[C@@H](CCC(=O)O)C(=O)O)cc3)cnc2n1 [AMINOPTERIN],Weight change,[16],-5%
same,IC50,[2],20 nM
same,Survival,[17],20 days
same,IC50,"[3]; Mus musculus, L1210",3 nM
same,IC50,[6],0.32 µM
same,IC50/[E],[7],0.5
same,ILS at 0.5 mg/kg,[18],89%
same,ILS at 1 mg/kg,[19],122%
same,IC50,[20],1 nM
same,Survival,[21],17 days
same,Weight change,[22],-4%

# From ChEMBL document CHEMBL1123432, “Methotrexate analogues. 28. Synthesis and biological evaluation of new gamma-monoamides of aminopterin and methotrexate” (J Med Chem, 1986)
